Measured values reported in patent US7855292B2, “Sulfonamide compounds” (Janssen Pharmaceutica NV, priority 2004, dated 2010).

What was measured:
[1] = biological target: T1, CCK-1 receptor (Homo sapiens, UniProt P32238); assay: CCK1 binding assay ([125I]-BH-CCK-8S displacement, CHO-K1 membranes); details: membranes of CHO-K1 cells stably transfected with the CCK-1 receptor, 20 pM [125I]-BH-CCK-8S, 0.3 μM PD-134,308 present, 60 min at 21±3° C.; for Ki: read-out: CCK1 pKi (converted)
T1 construct: expressed in transfected cells; host or cells: CHO-K1
T1 sequence (P32238 1-428): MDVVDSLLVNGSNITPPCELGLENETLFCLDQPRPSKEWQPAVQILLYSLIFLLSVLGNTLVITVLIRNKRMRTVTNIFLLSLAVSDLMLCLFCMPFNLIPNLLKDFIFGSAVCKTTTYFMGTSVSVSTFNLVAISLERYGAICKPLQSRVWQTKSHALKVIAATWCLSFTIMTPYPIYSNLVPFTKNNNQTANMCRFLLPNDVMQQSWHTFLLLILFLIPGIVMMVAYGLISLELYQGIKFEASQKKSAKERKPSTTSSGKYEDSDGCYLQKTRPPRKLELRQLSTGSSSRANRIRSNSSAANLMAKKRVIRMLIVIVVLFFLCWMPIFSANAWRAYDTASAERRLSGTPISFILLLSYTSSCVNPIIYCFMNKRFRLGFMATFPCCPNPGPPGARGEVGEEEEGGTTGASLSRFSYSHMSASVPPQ
How it was run: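 Membranes from CHO-K1 cells stably expressing CCK-1 incubated 1 h at 21±3° C with 20 pM [125I]-BH-CCK-8S in HEPES buffer pH 7.2 containing 0.3 μM PD-134,308 to block CCK-2. Bound radioactivity read by gamma counting after filtration. pKi derived via Cheng-Prusoff, with specific binding defined using 2-NAP.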

[2] = biological target: T2, CCK2 receptor (Homo sapiens, UniProt P32239); assay: CCK2 binding assay ([125I]-BH-CCK-8S displacement, HEKZFP membranes); details: membranes of doxycycline-induced HEKZFP cells, 20 pM [125I]-BH-CCK-8S, 60 min at 21±3° C.; for Ki: read-out: CCK2 pKi (converted)
T2 construct: analyzed for ZFP expression as well as CCK2R induction upon addition of doxycycline to the culture medium; endogenous in cells
T2 sequence (P32239 1-447): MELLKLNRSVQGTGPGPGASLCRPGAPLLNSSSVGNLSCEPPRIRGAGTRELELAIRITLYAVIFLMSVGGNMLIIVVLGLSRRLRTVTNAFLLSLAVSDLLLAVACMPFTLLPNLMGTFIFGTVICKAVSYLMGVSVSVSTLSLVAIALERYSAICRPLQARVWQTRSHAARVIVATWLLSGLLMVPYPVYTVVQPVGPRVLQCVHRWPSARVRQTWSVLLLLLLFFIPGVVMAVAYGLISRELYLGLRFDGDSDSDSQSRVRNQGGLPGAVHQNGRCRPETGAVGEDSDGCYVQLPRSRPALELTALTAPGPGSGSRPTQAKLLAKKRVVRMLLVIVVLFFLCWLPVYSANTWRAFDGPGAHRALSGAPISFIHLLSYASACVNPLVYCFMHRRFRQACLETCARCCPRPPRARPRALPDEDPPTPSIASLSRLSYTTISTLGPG

Compound | Ki [1] [nM] | Ki [2] [nM] | CCK1 pKi [1] | CCK2 pKi [2]
O=C(N[C@@H](Cc1ccc(Cl)c(Cl)c1)C(=O)N1CCCCC1)c1ccc(Cl)cc1NS(=O)(=O)c1cccc2nsnc12 [Example 140, (S)-2-(Benzo[1,2,5]thiadiazole-4-sulfonylamino)-4-chloro-N-[1-(3,4-dichloro-benzyl)-2-oxo-2-piperidin-1-yl-ethyl]-benzamide] | 126 | 316 | – | –
O=C(N[C@@H](Cc1ccc(Cl)c(Cl)c1)C(=O)O)c1cc(Cl)c(Cl)cc1NS(=O)(=O)c1cccc2nsnc12 [Example 141, (S)-2-[2-(Benzo[1,2,5]thiadiazole-4-sulfonylamino)-4,5-dichloro-benzoylamino]-3-(3,4-dichloro-phenyl)-propionic acid] | 100 | 63.1 | – | –
COC(=O)[C@H](Cc1ccc(Cl)c(Br)c1)NC(=O)c1ccc(Br)cc1NS(=O)(=O)c1cccc2nsnc12 [Example 142, (S)-2-[2-(Benzo[1,2,5]thiadiazole-4-sulfonylamino)-4-bromo-benzoylamino]-3-(3-bromo-4-chloro-phenyl)-propionic acid methyl ester] | 158 | 631 | – | –
COC(=O)[C@H](Cc1ccc(F)c(Br)c1)NC(=O)c1ccc(Br)cc1NS(=O)(=O)c1cccc2nsnc12 [Example 143, (S)-2-[2-(Benzo[1,2,5]thiadiazole-4-sulfonylamino)-4-bromo-benzoylamino]-3-(3-bromo-4-fluoro-phenyl)-propionic acid methyl ester] | 158 | 200 | – | –
O=C(O)/C(=C/c1ccc(Cl)c(Cl)c1)NC(=O)c1cc(Cl)c(Cl)cc1NS(=O)(=O)c1cccc2nsnc12 [Example 144, (Z)-2-[2-(Benzo[1,2,5]thiadiazole-4-sulfonylamino)-4,5-dichloro-benzoylamino]-3-(3,4-dichloro-phenyl)-acrylic acid] | 501 | 50.1 | – | –
O=C(N[C@@H](Cc1ccc(Cl)c(Br)c1)C(=O)O)c1ccc(Cl)cc1NS(=O)(=O)c1cccc2nsnc12 [Example 145, (S)-2-[2-(Benzo[1,2,5]thiadiazole-4-sulfonylamino)-4-chloro-benzoylamino]-3-(3-bromo-4-chloro-phenyl)-propionic acid] | – | – | 6.7 | 7.4
O=C(N[C@@H](Cc1ccc(Cl)c(Br)c1)C(=O)O)c1ccc(Cl)cc1NS(=O)(=O)c1cccc2nccnc12 [Example 146, (S)-3-(3-Bromo-4-chloro-phenyl)-2-[4-chloro-2-(quinoxaline-5-sulfonylamino)-benzoylamino]-propionic acid] | 251 | 25.1 | – | –
O=C(N[C@@H](Cc1ccc(Cl)c(Br)c1)C(=O)O)c1cc(Cl)c(Cl)cc1NS(=O)(=O)c1cccc2nsnc12 [Example 147, (S)-2-[2-(Benzo[1,2,5]thiadiazole-4-sulfonylamino)-4,5-dichloro-benzoylamino]-3-(3-bromo-4-chloro-phenyl)-propionic acid] | 158 | 39.8 | – | –
O=C(N[C@@H](Cc1ccc(Cl)c(Br)c1)C(=O)O)c1cc(Cl)c(Cl)cc1NS(=O)(=O)c1cccc2nccnc12 [Example 148, (S)-3-(3-Bromo-4-chloro-phenyl)-2-[4,5-dichloro-2-(quinoxaline-5-sulfonylamino)-benzoylamino]-propionic acid] | 251 | 63.1 | – | –
COC(=O)[C@H](Cc1ccc(F)c(Br)c1)NC(=O)c1ccc(Cl)cc1NS(=O)(=O)c1cccc2nsnc12 [Example 149, (S)-2-[2-(Benzo[1,2,5]thiadiazole-4-sulfonylamino)-4-chloro-benzoylamino]-3-(3-bromo-4-fluoro-phenyl)-propionic acid methyl ester] | 200 | 200 | – | –
COC(=O)[C@H](Cc1ccc(F)c(Br)c1)NC(=O)c1cc(Cl)c(Cl)cc1NS(=O)(=O)c1cccc2nsnc12 [Example 150, (S)-2-[2-(Benzo[1,2,5]thiadiazole-4-sulfonylamino)-4,5-dichloro-benzoylamino]-3-(3-bromo-4-fluoro-phenyl)-propionic acid methyl ester] | 79.4 | 251 | – | –
COC(=O)[C@H](Cc1ccc(F)c(Br)c1)NC(=O)c1ccc(Br)cc1NS(=O)(=O)c1cccc2nccnc12 [Example 151, (S)-3-(3-Bromo-4-fluoro-phenyl)-2-[4-bromo-2-(quinoxaline-5-sulfonylamino)-benzoylamino]-propionic acid methyl ester] | 794 | 126 | – | –
COC(=O)[C@H](Cc1ccc(F)c(Br)c1)NC(=O)c1ccc(Cl)cc1NS(=O)(=O)c1cccc2nccnc12 [Example 152, (S)-3-(3-Bromo-4-fluoro-phenyl)-2-[4-chloro-2-(quinoxaline-5-sulfonylamino)-benzoylamino]-propionic acid methyl ester] | 1000 | 158 | – | –
COC(=O)[C@H](Cc1ccc(F)c(Br)c1)NC(=O)c1cc(Cl)c(Cl)cc1NS(=O)(=O)c1cccc2nccnc12 [Example 153, (S)-3-(3-Bromo-4-fluoro-phenyl)-2-[4,5-dichloro-2-(quinoxaline-5-sulfonylamino)-benzoylamino]-propionic acid methyl ester] | – | – | 6.7 | 6.6
COC(=O)[C@H](Cc1ccc(Cl)c(Cl)c1)NC(=O)c1ccc(I)cc1NS(=O)(=O)c1cccc2nsnc12 [Example 154, (S)-2-[2-(Benzo[1,2,5]thiadiazole-4-sulfonylamino)-4-iodo-benzoylamino]-3-(3,4-dichloro-phenyl)-propionic acid methyl ester] | 158 | 251 | – | –
O=C(N[C@@H](Cc1ccc(Cl)c(Br)c1)C(=O)O)c1ccc(Br)cc1NS(=O)(=O)c1cccc2nccnc12 [Example 155, (S)-3-(3-Bromo-4-chloro-phenyl)-2-[4-bromo-2-(quinoxaline-5-sulfonylamino)-benzoylamino]-propionic acid] | – | – | 7.0 | 8.0
O=C(N[C@@H](Cc1ccc(F)c(Br)c1)C(=O)O)c1ccc(Cl)cc1NS(=O)(=O)c1cccc2nsnc12 [Example 156, (S)-2-[2-(Benzo[1,2,5]thiadiazole-4-sulfonylamino)-4-chloro-benzoylamino]-3-(3-bromo-4-fluoro-phenyl)-propionic acid] | – | – | 6.6 | 8.0
O=C(N[C@@H](Cc1ccc(F)c(Br)c1)C(=O)O)c1ccc(Br)cc1NS(=O)(=O)c1cccc2nccnc12 [Example 158, (S)-3-(3-Bromo-4-fluoro-phenyl)-2-[4-bromo-2-(quinoxaline-5-sulfonylamino)-benzoylamino]-propionic acid] | – | – | 6.5 | 8.3
O=C(N[C@@H](Cc1ccc(F)c(Br)c1)C(=O)O)c1ccc(Cl)cc1NS(=O)(=O)c1cccc2nccnc12 [Example 159, (S)-3-(3-Bromo-4-fluoro-phenyl)-2-[4-chloro-2-(quinoxaline-5-sulfonylamino)-benzoylamino]-propionic acid] | – | – | 6.4 | 8.0
O=C(N[C@@H](Cc1ccc(F)c(Br)c1)C(=O)O)c1cc(Cl)c(Cl)cc1NS(=O)(=O)c1cccc2nccnc12 [Example 160, (S)-3-(3-Bromo-4-fluoro-phenyl)-2-[4,5-dichloro-2-(quinoxaline-5-sulfonylamino)-benzoylamino]-propionic acid] | – | – | 6.8 | 8.2
O=C(N[C@@H](Cc1ccc(Cl)c(Br)c1)C(=O)O)c1ccc(Br)cc1NS(=O)(=O)c1cccc2nsnc12 [Example 161, (S)-2-[2-(Benzo[1,2,5]thiadiazole-4-sulfonylamino)-4-bromo-benzoylamino]-3-(3-bromo-4-chloro-phenyl)-propionic acid] | – | – | 6.9 | 7.9
O=C(N[C@@H](Cc1ccc(F)c(Br)c1)C(=O)O)c1ccc(Br)cc1NS(=O)(=O)c1cccc2nsnc12 [Example 162, (S)-2-[2-(Benzo[1,2,5]thiadiazole-4-sulfonylamino)-4-bromo-benzoylamino]-3-(3-bromo-4-fluoro-phenyl)-propionic acid] | – | – | 6.6 | 8.2
